Measured values reported in patent US10294202B2, “Pyrrolidinones as herbicides” (FMC Corporation, priority 2013, dated 2019).

Experiments:
[1] = test system: monochoria; test: Test F flood (paddy) test; format: in vivo, Monochoria vaginalis; conditions: 21 d, scale 0-100
Description: Three plastic pots (ca. 16-cm diameter) per rate were partially filled with sterilized Tama silt loam soil comprising a 35:50:15 ratio of sand, silt and clay and 2.6% organic matter. Separate plantings for each of the three pots were as follows. Seeds from the U.S. of monochoria (Monochoria vaginalis), sedge, umbrella (small-flower umbrella sedge, Cyperus difformis), bulrush, […] bulrush, Scirpus juncoides), and […] (purple […] coccinea), were planted into one 16-cm pot for each rate. Seeds from the U.S. of flatsedge, rice (rice flatsedge, Cyperus iria), sprangletop, Brdd. (bearded sprangletop, Leptochloa fascicularis), one stand of 9 or 10 water seeded rice seedlings (Rice, W.S. Jap, Oryza sativa cv. 'Japonica-[…]' or Rice, W.S. Ind, 'Indica'), and two stands of 3 or 4 seedlings of rice, transplanted (transplanted rice, Oryza sativa cv. 'Japonica-[…]') were planted into one 16-cm pot for each rate. Seeds from the U.S. of barnyardgrass (Echinochloa crus-galli), […] (common […], Alisma plantago-aquatica), and watergrass, late (late watergrass, Echinochloa oryzicola) were planted into one 16-cm pot for each rate. Plantings were sequential so that crop and weed species were at the 2.0 to 2.5-leaf stage at time of treatment. Potted plants were grown in a greenhouse with day/night temperature settings of 30/27° C., and supplemental balanced lighting was provided to maintain a 16-h photoperiod. Test pots were maintained in the greenhouse until test completion. At time of treatment, test pots were flooded to 3 cm above the soil surface, treated by application of test compounds directly to the paddy water, and then maintained at that water depth for the duration of the test. Effects of treatments on rice and weeds were visually evaluated by comparison to untreated controls after 21 d. Plant response ratings, summarized in Table F, are based on a scale of 0 to 100 where 0 is no effect and 100 is complete control. A dash (-) response means no test result.

[2] = test system: field violet; test: Test D pre-/postemergence herbicide test; format: in vivo, Viola arvensis; conditions: for Plant response rating: Field Violet, scale 0 to 100; for Plant response rating, Field Violet: scale 0 to 100 (0 no effect, 100 complete control)
Description: (§1) Seeds of plant species selected from bluegrass (annual bluegrass, Poa annua), blackgrass (Alopecurus myosuroides), canarygrass (littleseed canarygrass, Phalaris minor), chickweed (common chickweed, Stellaria media), galium (catchweed bedstraw, Galium aparine), bromegrass, downy (downy bromegrass, Bromus tectorum), field poppy (Papaver rhoeas), field violet (Viola arvensis), foxtail, green (green foxtail, Setaria viridis), deadnettle (henbit deadnettle, Lamium amplexicaule), ryegrass, Italian (Italian ryegrass, Lolium multiflorum), kochia (Kochia scoparia), lambsquarters (Chenopodium album), oilseed rape (Brassica napus), pigweed (Amaranthus retroflexus), chamomile (scentless chamomile, Matricaria inodora), Russian thistle (Salsola kali), speedwell (bird's-eye speedwell, Veronica persica), barley, spring (spring barley, Hordeum vulgare), wheat, spring (spring wheat, Triticum aestivum), buckwheat, wild (wild buckwheat, Polygonum convolvulus), mustard, wild (wild mustard, Sinapis arvensis), oat, wild (wild oat, Avena fatua), radish, wild (wild radish, Raphanus raphanistrum), […]), barley, winter (winter barley, Hordeum vulgare), and wheat, winter (winter wheat, Triticum aestivum) were planted into a silt loam soil and treated preemergence with test chemicals formulated in a non-phytotoxic solvent mixture which included a surfactant. At the same time, these species were planted in pots containing Redi-Earth® planting medium (Scotts Company, 14111 Scottslawn Road, Marysville, Ohio 43041) comprising spaghnum peat moss, vermiculite, wetting agent and starter nutrients and treated with postemergence applications of the test chemicals formulated in the same manner. Plants ranged in height from 2 to 18 cm (1- to 4-leaf stage). Treated plants and controls were maintained in a controlled growth environment for 7 to 21 days after which time all species were compared to controls and visually evaluated. Plant response ratings, summarized in Table D, are based on a scale of 0 to 100 where 0 is no effect and 100 is complete control. A dash (-) response means no test result.

[3] = test system: radish, wild; test: Test D pre-/postemergence herbicide test; format: in vivo, Raphanus raphanistrum; conditions: for Plant response rating: Postemergence, Radish, Wild, scale 0 to 100; for Plant response rating, Radish, Wild: Preemergence, scale 0 to 100 (0 no effect, 100 complete control)
Description: as §1

[4] = test system: corn; test: Test E preemergence herbicide test; format: in vivo, Zea mays; parameters: key: 0 = no effect, 100 = complete control
Description: (§2) Seeds of plant species selected from corn (Zea mays), soybean (Glycine max), velvetleaf (Abutilon theophrasti), lambsquarters (Chenopodium album), wild poinsettia (Euphorbia heterophylla), pigweed, palmer (palmer pigweed, Amaranthus palmeri), waterhemp (common waterhemp, Amaranthus rudis), surinam grass (Brachiaria decumbens), crabgrass, large (large crabgrass, Digitaria sanguinalis), crabgrass, Brazil (Brazilian crabgrass, Digitaria horizontalis), panicum, fall (fall panicum, Panicum dichotomiflorum), foxtail, giant (giant foxtail, Setaria faberii), foxtail, green (green foxtail, Setaria viridis), goosegrass (Eleusine indica), johnsongrass (Sorghum halepense), ragweed (common ragweed, Ambrosia elatior), barnyardgrass (Echinochloa crus-galli), sandbur (southern sandbur, Cenchrus echinatus), arrowleaf […] rhombifolia), ryegrass, Italian (Italian ryegrass, Lolium multiflorum), dayflower, VA (Virginia dayflower, Commelina virginica), field bindweed (Convolvulus arvensis), morningglory (Ipomoea coccinea), nightshade (eastern black nightshade, Solanum ptycanthum), kochia (Kochia scoparia), nutsedge, yellow (yellow nutsedge, Cyperus esculentus), cocklebur (common cocklebur, Xanthium strumarium), smartweed (ladysthumb smartweed, Polygonum Persicaria) and beggarticks (hairy beggarticks, Bidens pilosa), were planted into a silt loam soil and treated preemergence with test chemicals formulated in a non-phytotoxic solvent mixture which included a surfactant. Treated plants and controls were maintained in a greenhouse for 21 days, after which time all species were compared to controls and visually evaluated. Plant response ratings, summarized in Table E, are based on a scale of 0 to 100 where 0 is no effect and 100 is complete control. A dash (-) response means no test result.

[5] = test system: lambsquarters; test: Test E preemergence herbicide test; format: in vivo, Chenopodium album; parameters: key: 0 = no effect, 100 = complete control
Description: as §2

[6] = test system: crabgrass, large; test: Test E preemergence herbicide test; format: in vivo, Digitaria sanguinalis; parameters: key: 0 = no effect, 100 = complete control
Description: as §2

[7] = test system: beggarticks; test: Test E preemergence herbicide test; format: in vivo, Bidens pilosa; parameters: key: 0 = no effect, 100 = complete control
Description: as §2

| Structure (SMILES) | Plant response rating, Monochoria ([1]; 125 g ai/ha) | Plant response rating, Monochoria ([1]; 250 g ai/ha) | Plant response rating, Monochoria ([1]; 500 g ai/ha) | Plant response rating ([2]; Postemergence, 16 g ai/ha) | Plant response rating ([2]; Postemergence, 31 g ai/ha) | Plant response rating ([2]; Postemergence, 62 g ai/ha) | Plant response rating ([2]; Postemergence, 125 g ai/ha) | Plant response rating ([2]; Postemergence, 250 g ai/ha) | Plant response rating, Field Violet ([2]; Preemergence, 31 g ai/ha) | Plant response rating, Field Violet ([2]; Preemergence, 62 g ai/ha) | Plant response rating ([2]; Preemergence, 250 g ai/ha) | Plant response rating ([3]; 16 g ai/ha) | Plant response rating ([3]; 31 g ai/ha) | Plant response rating ([3]; 62 g ai/ha) | Plant response rating ([3]; 125 g ai/ha) | Plant response rating ([3]; 250 g ai/ha) | other results |
| --- | --- | --- | --- | --- | --- | --- | --- | --- | --- | --- | --- | --- | --- | --- | --- | --- | --- |
| CN1CC(c2ccc(F)cc2)C(C(=O)Nc2cccc(F)c2F)C1=O (stereo not drawn) [Compound 271] | 100 | 100 | 100 |  |  |  |  |  |  |  |  |  |  |  |  |  | Plant response rating, Monochoria ([1]; 64 g ai/ha): 85 |
| O=C1NCC(c2ccc(F)c(F)c2)C1C(=O)Nc1cccc(F)c1 (racemic) [Compound 12] |  |  |  | 0 | 0 | 30 | 35 | 40 | 0 | 0 | 0 | 0 | 0 | 20 | 25 | 25 | Plant response rating, Field Violet ([2]; Preemergence, 16 g ai/ha): 0; Plant response rating ([2]; Preemergence, 125 g ai/ha): 0; Plant response rating, Radish, Wild ([3]; 16 g ai/ha): 0 |
| O=C1NCC(c2ccc(C(F)(F)F)cc2)C1C(=O)Nc1ccc(F)c(F)c1F (stereo not drawn) [Compound 232] |  |  |  |  |  |  |  |  |  |  |  |  |  |  |  |  | Plant response rating, Corn ([4]; 31 g ai/ha): 0; Plant response rating, Corn ([4]; 62 g ai/ha): 0; Plant response rating, Corn ([4]; 125 g ai/ha): 0; Plant response rating, Corn ([4]; 250 g ai/ha): 0; Plant response rating, Lambsquarters ([5]; 31 g ai/ha): 95; Plant response rating, Lambsquarters ([5]; 62 g ai/ha): 98; Plant response rating, Lambsquarters ([5]; 125 g ai/ha): 100; Plant response rating, Lambsquarters ([5]; 250 g ai/ha): 98; Plant response rating, Crabgrass, Large ([6]; 31 g ai/ha): 95; Plant response rating, Crabgrass, Large ([6]; 62 g ai/ha): 98; Plant response rating, Crabgrass, Large ([6]; 125 g ai/ha): 98; Plant response rating, Crabgrass, Large ([6]; 250 g ai/ha): 98; Plant response rating, Beggarticks ([7]; 31 g ai/ha): 0; Plant response rating, Beggarticks ([7]; 62 g ai/ha): 0; Plant response rating, Beggarticks ([7]; 125 g ai/ha): 20; Plant response rating, Beggarticks ([7]; 250 g ai/ha): 60 |
| O=C1NCC(c2cc(F)c(F)c(F)c2)C1C(=O)Nc1ccccc1F (racemic) [Compound 34] |  |  |  | 0 | 0 | 0 | 0 | 20 |  |  |  | 0 | 0 | 0 | 0 | 0 |  |
| O=C1NCC(c2ccc(F)cc2)C1C(=O)Nc1ccccc1F (racemic) [Compound 16] |  |  |  |  |  |  |  |  |  |  |  |  |  |  |  |  | Plant response rating, Corn ([4]; 16 g ai/ha): 0; Plant response rating, Corn ([4]; 31 g ai/ha): 0; Plant response rating, Corn ([4]; 62 g ai/ha): 0; Plant response rating, Corn ([4]; 125 g ai/ha): 0; Plant response rating, Corn ([4]; 250 g ai/ha): 0; Plant response rating, Lambsquarters ([5]; 16 g ai/ha): 0; Plant response rating, Lambsquarters ([5]; 31 g ai/ha): 0; Plant response rating, Lambsquarters ([5]; 62 g ai/ha): 0; Plant response rating, Lambsquarters ([5]; 250 g ai/ha): 0; Plant response rating, Crabgrass, Large ([6]; 16 g ai/ha): 10; Plant response rating, Crabgrass, Large ([6]; 31 g ai/ha): 20; Plant response rating, Crabgrass, Large ([6]; 62 g ai/ha): 30; Plant response rating, Crabgrass, Large ([6]; 125 g ai/ha): 75; Plant response rating, Crabgrass, Large ([6]; 250 g ai/ha): 98; Plant response rating, Beggarticks ([7]; 16 g ai/ha): 0; Plant response rating, Beggarticks ([7]; 125 g ai/ha): 0; Plant response rating, Beggarticks ([7]; 250 g ai/ha): 0 |
| O=C1NCC(c2cccc(C(F)(F)F)c2)C1C(=O)Nc1cccc(F)c1F (stereo not drawn) [Compound 241] |  |  |  |  |  |  |  |  | 15 | 15 | 30 |  |  |  |  |  | Plant response rating, Field Violet ([2]; Preemergence, 125 g ai/ha): 20; Plant response rating, Radish, Wild ([3]; 31 g ai/ha): 0; Plant response rating, Radish, Wild ([3]; 62 g ai/ha): 0; Plant response rating, Radish, Wild ([3]; 125 g ai/ha): 0; Plant response rating, Radish, Wild ([3]; 250 g ai/ha): 0 |
| O=C1NCC(c2cccc(C(F)(F)F)c2)C1C(=O)Nc1ccccc1F (racemic) [Compound 3] |  | 90 | 100 |  |  |  |  |  |  |  |  |  |  |  |  |  |  |
| O=C1NCC(c2cc(F)c(F)c(F)c2)C1C(=O)Nc1ccccc1C(F)(F)F (racemic) [Compound 33] |  |  |  | 0 | 0 | 0 | 0 | 0 |  |  |  | 0 | 0 | 0 | 0 | 0 |  |
| O=C1NCC(c2cccc(C(F)(F)F)c2)C1C(=O)Nc1ccc(F)cc1F (racemic) [Compound 207] | 65 | 100 | 100 |  |  |  |  |  | 10 | 15 | 35 |  |  |  |  |  | Plant response rating, Field Violet ([2]; Preemergence, 125 g ai/ha): 35; Plant response rating, Radish, Wild ([3]; 31 g ai/ha): 15; Plant response rating, Radish, Wild ([3]; 62 g ai/ha): 10; Plant response rating, Radish, Wild ([3]; 125 g ai/ha): 15; Plant response rating, Radish, Wild ([3]; 250 g ai/ha): 15 |
| O=C1NCC(c2ccc(C(F)(F)F)c(F)c2)C1C(=O)Nc1cccc(F)c1F (racemic) [Compound 247] | 70 | 70 | 75 |  |  |  |  |  |  |  |  |  |  |  |  |  | Plant response rating, Monochoria ([1]; 1000 g ai/ha): 75; Plant response rating, Monochoria ([1]; 2000 g ai/ha): 75 |
